Earlier results, collected in patent US20110081780A1, “AQUEOUS DISPERSION FOR CHEMICAL MECHANICAL POLISHING AND CHEMICAL MECHANICAL POLISHING METHOD” (JSR CORPORATION, priority 2008, published 2011).

Key:
[1] = commercially available products
[2] = 25° C.; second carboxyl group if two carboxyl groups, third if three or more

Compound	HLB value [1]	pKa [2]
O=C(O)[C@@H]1CCCCC[C@H]1C(=O)O (relative stereo) [1,2-Cycloheptanedicarboxylic acid (trans)]	–	6.18
O=C(O)[C@@H]1CCCCCC[C@H]1C(=O)O (relative stereo) [1,2-Cyclooctanedicarboxylic acid (trans)]	–	6.24
O=C(O)[C@H]1CCCCC[C@H]1C(=O)O [1,2-Cycloheptanedicarboxylic acid (cis)]	–	7.60
O=C(O)[C@H]1CCCCCC[C@H]1C(=O)O [1,2-Cyclooctanedicarboxylic acid (cis)]	–	7.34
CCC(CC)(C(=O)O)C(=O)O [2,2-Diethylmalonic acid]	–	7.42
CC(C)C(C(=O)O)(C(=O)O)C(C)C [2,2-Diisopropylmalonic acid]	–	8.85
CC(C)(C)C(C(=O)O)C(C(=O)O)C(C)(C)C (stereo not drawn) [2,3-Di-t-butylsuccinic acid]	–	10.26
CCC(C(=O)O)C(CC)C(=O)O (stereo not drawn) [2,3-Diethylsuccinic acid]	–	6.46
CC(C(=O)O)C(C)C(=O)O (stereo not drawn) [2,3-Dimethylsuccinic acid]	–	6.00
CCC(CC)C(CC)(CCC(=O)O)C(=O)O (stereo not drawn) [2-Ethyl-2-(1-ethylpropyl)glutaric acid]	–	7.31
CCC(C)(C(=O)O)C(=O)O [2-Ethyl-2-methylmalonic acid]	–	6.55
CCC(C(=O)O)C(C)C(=O)O (stereo not drawn) [2-Ethyl-3-methylsuccinic acid]	–	6.10
CCC(C(=O)O)C(=O)O [2-Ethylmalonic acid]	–	5.81
CC(C)C(C(=O)O)C(=O)O [2-Isopropylmalonic acid]	–	5.88
CC1CCCCC1(CC(=O)O)CC(=O)O (stereo not drawn) [2-Methylcyclohexyl-1,1-diacetic acid]	–	6.89
CC(C(=O)O)C(=O)O [2-Methylmalonic acid]	–	5.76
CCC(CC)(CC(=O)O)CC(=O)O [3,3-Diethylglutaric acid]	–	7.42
CC(C)C(CC(=O)O)(CC(=O)O)C(C)C [3,3-Diisopropylglutaric acid]	–	7.68
CC(C)(CC(=O)O)CC(=O)O [3,3-Dimethylglutaric acid]	–	6.45

Further lines, results first:

HLB value [1]	pKa [2]	Compound
13	–	2,4,7,9-tetramethyl-5-decyne-4,7-diol-dipolyoxyethylene ethers [Surfynol 465]
17	–	2,4,7,9-tetramethyl-5-decyne-4,7-diol-dipolyoxyethylene ethers [Surfynol 485]
–	7.48	CCCC(CCC)(CC(=O)O)CC(=O)O [3,3-Dipropylglutaric acid]
–	6.95	CCC(CC(=O)O)(CC(=O)O)c1ccccc1 [3-Ethyl-3-phenylglutaric acid]
–	6.92	CC(C)C(C)(CC(=O)O)CC(=O)O [3-Isopropyl-3-methylglutaric acid]
–	6.70	CCC(C)(CC(=O)O)CC(=O)O [3-Methyl-3-ethylglutaric acid]
–	6.17	CC(CC(=O)O)(CC(=O)O)c1ccccc1 [3-Methyl-3-phenylglutaric acid]
–	7.49	CC(C)(C)C(C)(CC(=O)O)CC(=O)O [3-t-Butyl-3-methylglutaric acid]
–	7.08	O=C(O)CC1(CC(=O)O)CCCCC1 [Cyclohexyl-1,1-diacetic acid]
–	6.77	O=C(O)CC1(CC(=O)O)CCCC1 [Cyclopentyl-1,1-diacetic acid]
–	5.55	O=C(O)CC(C(=O)O)c1ccccc1 (stereo not drawn) [Phenylsuccinic acid]
–	7.41	CC(C)(C(=O)O)C(C)(C)C(=O)O [Tetramethylsuccinic acid]
–	9.96	O=C(O)c1cccc(O)c1 [m-Hydroxvbenzoic acid]
–	9.46	O=C(O)c1ccc(O)cc1 [p-Hydroxybenzoic acid]
